The results in this text go back to US9452194B2, “Methods for treating HCV” (AbbVie Inc., priority 2011, dated 2016).

Molecules are shown by their SMILES.

For one data set, the system named is 1a-H77 replicons. Put plainly: Predominant resistant variants selected in replicons, fold resistance. Format: cell-based, Hepatitis C virus. On the procedure:
(§1) Predominant resistant variants selected by Compound 1, 2, or 4 in genotype 1 replicons were also determined.

In another data set the test system is 1b-Con1 replicons. Described as above. The format is cell-based, Hepatitis C virus. How it is done: as §1
Data set [1] in a line: Bioavailability of solid formulation of Compound 2 with increased binder. The conditions noted are these: 250 mg in the improved formulation versus 400 mg in the original formulation. The format is in vivo.

For `Cc1cnc(C(=O)N[C@H]2CCCCC/C=C\[C@@H]3C[C@@]3(C(=O)NS(=O)(=O)C3CC3)NC(=O)[C@@H]3C[C@@H](Oc4nc5ccccc5c5ccccc45)CN3C2=O)cn1` [Compound 1, (2R,6S,13aS,14aR,16aS,Z)-N-(cyclopropylsulfonyl)-6-(5-methylpyrazine-2-carboxamido)-5,16-dioxo-2-(phenanthridin-6-yloxy)-1,2,3,5,6,7,8,9,10,11,13a,14,14a,15,16,16a-hexadecahydrocyclopropa[e]pyrrolo[1,2-a][1,4]diazacyclopentadecine-14a-carboxamide], the fold resistance with 1a-H77 replicons (variant D168A) stood at 48 fold; in the data set on 1a-H77 replicons (variant R155K) it was 26 fold; with 1b-Con1 replicons (variant A156T) it was 9 fold; with 1b-Con1 replicons (variant D168V) it was 190 fold; with 1b-Con1 replicons (variant R155K) it was 48 fold.

Consider `COc1c(-c2ccc3cc(NS(C)(=O)=O)ccc3c2)cc(-n2ccc(=O)[nH]c2=O)cc1C(C)(C)C` [Compound 2, N-(6-(3-tert-butyl-5-(2,4-dioxo-3,4-dihydropyrimidin-1(2H)-yl)-2-methoxyphenyl)naphthalen-2-yl)methanesulfonamide], for which the fold resistance worked out at 1600 fold with 1a-H77 replicons (variant C316Y); 36 fold with 1a-H77 replicons (variant M414T); 15 fold in the data set on 1a-H77 replicons (variant S556G); 980 fold in the data set with 1a-H77 replicons (variant Y448C); 1400 fold with 1b-Con1 replicons (variant C316Y); 100 fold with 1b-Con1 replicons (variant D559G). Besides, in the data set with 1b-Con1 replicons (variant M414T), the fold resistance came to 26 fold. Moreover, in data set [1], the “bioequivalence of improved solid formulation (increased amount of binder, e.g. copovidone)” value is reported as “bioequivalent”.

Regarding `COC(=O)N[C@H](C(=O)N1CCC[C@H]1C(=O)Nc1ccc([C@@H]2CC[C@@H](c3ccc(NC(=O)[C@@H]4CCCN4C(=O)[C@@H](NC(=O)OC)C(C)C)cc3)N2c2ccc(C(C)(C)C)cc2)cc1)C(C)C` [Compound 4], the fold resistance is reported as 9000 fold in the data set on 1a-H77 replicons (variant M28T); 60 fold in the data set on 1a-H77 replicons (variant M28V); 800 fold in the data set with 1a-H77 replicons (variant Q30R); 1700 fold in the data set on 1a-H77 replicons (variant Y93C); 41000 fold in the data set on 1a-H77 replicons (variant Y93H); 55 fold in the data set on 1b-Con1 replicons (variant Y93H).
